The subject of data set [1] is Human endometrial stromal cells (hESC). The data set can be described thus: Cytotoxicity on hESC (CCK8 cell viability). Type of data set: cell-based. The conditions noted are these: for IC50: read-out: IC50 (inhibition of hESC proliferation). On the procedure:
Human endometrial stromal cells (hESC) were obtained from the Meisen Chinese Tissue Culture Collections (Zhejiang, China). The basal culture medium for hESC comprised DMEM/F12 supplemented with 10% fetal bovine serum (FBS) and 1% penicillin–streptomycin. The culture environment was maintained at 5% CO2 and 37 °C. […] Six gradients of concentrations were established to determine the IC50 of these compounds.
(§1) D-Galactose (D-Gal) was procured from Solabio Company (Beijing, China) and prepared in DMEM/F12 at a concentration of 200 mM as the modeling drug. hESC were uniformly seeded at 4 × 10^3 cells/well in a 96-well plate with 6 replicates per group, while wells treated only with basal culture medium served as the control group. Following cell adhesion, a 24-h intervention with 200 mM D-Gal was administered, followed by a 24-h culture with the appropriate concentration of natural product selected from the screening. CCK8 solution (Solabio, Beijing, China) was added to the wells and incubated in the culture chamber for 2 h, and absorbance was recorded at 450 nm using a microplate reader (Bio-Rad, USA).
All data in this study were analyzed by SPSS 22.0 software, and the results were presented as mean ± SEM. The one-way ANOVA, followed with Turkey’s test was performed for multiple comparison. p value < 0.05 was considered statistically significant. GraphPad Prism is utilized for calculating IC50 values and organizing graphs.
Previous studies have identified an increased senescent phenotype in endometrial stromal cells post COH, which is unfavorable for decidualization during embryo implantation. D-Gal is a widely recognized mimetic agent causing oxidative stress damage and promoting aging.

For the next data set, the system named is mouse embryos. More on the design: method as in PMID 25896022. The conditions noted are these: cited from earlier work.
Data set [2] deals with hESC with D-Gal-induced damage. The data set can be described thus: Protection against D-Gal-induced damage in hESC (CCK-8). Type of data set: cell-based, Human. The conditions noted are these: 200 mM D-Gal 24 h, then compound 24 h at two concentrations: quercetin 50/25 μM, taxifolin 260/130 μM, kaempferol 400/200 μM, eriodictyol 230/115 μM, isorhamnetin 500/250 μM. On the procedure:
as §1
Cell viability was assessed using CCK-8 assay (Fig. 10A).

For data set [3] the following is noted: cited from earlier work.
Data set [4] can be described thus: Blood drug concentration of kaempferol following BTG administration. The class given is in vivo, rat. The conditions noted are these: rats, BTG 3.27 g/kg oral gavage for 3 days, sampling 10 min to 12 h. From the text: Supplementary file 13048_2023_1339_MOESM1_ESM.pdf: Additional file 1: Table S1. Composition of the BTG. Table S2. Identification of chemical components in BTG. Table S3. Affinity of ingredients with potential targets. Figure S1. […] Upon usage, it was sequentially diluted to obtain concentration gradient solutions. Utilizing the same 50 female SD rats as employed in the in vivo experiment, two rats constituted the blank control group, while the remaining 48 rats were divided into treatment groups, each consisting of 6 rats. […] The blood samples were centrifuged at 4°C, 3500 rpm for 10 min, and the supernatant was analyzed. Following the UPLC-MS analysis method described earlier, the peak areas of the analyte and internal standard were recorded to calculate the blood drug concentrations at each time point. […] The serum levels of (A) ALT, (B) AST, (C) CREA, (D) UA, and (E) UREA in each group of rats were measured using microplate assays. […]
stock solution of 200 μg/mL for the mixed control solution. […] The blood samples were centrifuged at 4°C, 3500 rpm for 10 min, and the supernatant was analyzed. Following the UPLC-MS analysis method described earlier, the peak areas of the analyte and internal standard were recorded to calculate the blood drug concentrations at each time point. […]

Another data set deals with mice. The conditions noted are these: dose higher than 800 μg; cited from earlier work.
The mark [5] stands for this setting: hESC, six concentration gradients.

Structures are written as SMILES. Where two headings read alike, the source gives them in different places.

Consider `O=C[C@H](O)[C@@H](O)[C@@H](O)[C@H](O)CO` [D-Gal, D-Galactose, reference compound], for which the inhibition at 200000 µM in data set [1] (hESCs, 200 mM, read-out: inhibition of cell proliferation) was ~50%.

`O=C(O)[C@H]1O[C@@H](Oc2cc3oc(-c4ccccc4)cc(=O)c3c(O)c2O)[C@H](O)[C@@H](O)[C@@H]1O` [baicalin]: the “adhesion rate and implantation rate of mouse embryos” value in the data set on mouse embryos was “increase”.

`O=C1C[C@@H](c2ccc(O)c(O)c2)Oc2cc(O)cc(O)c21` [eriodictyol]: the “improvement of cellular viability damage caused by D-Gal” value (shortened to “improvement”) in data set [2] was “effective improvement”. Moreover, in data set [1] (setting [5]), the IC50 came to 233 µM.

Take `COc1cc(-c2oc3cc(O)cc(O)c3c(=O)c2O)ccc1O` [isorhamnetin]: in data set [2], the “improvement” value was “failed to effectively ameliorate”. Besides, in data set [1] (setting [5]), the IC50 is > 500 µM.

As to `O=c1c(O)c(-c2ccc(O)cc2)oc2cc(O)cc(O)c12` [kaempferol], the oral bioavailability in data set [3] is recorded as 41.88%. In data set [2], the “improvement” value is “effective improvement”. In addition, the “kaempferol concentration in the blood following BTG administration” value in data set [4] is reported as “sustained detectable concentrations even at 8 h”. Further, the IC50 in data set [1] amounted to 399 µM.

Regarding `CS(=O)(=O)Nc1ccc([N+](=O)[O-])cc1Oc1ccccc1` [nimesulide], the implantation sites result in the data set on mice is on record as “reduced”.

Regarding `O=c1c(O)c(-c2ccc(O)c(O)c2)oc2cc(O)cc(O)c12` [quercetin], the oral bioavailability in data set [3] was 46.43%. In addition, the “improvement” value in data set [2] is recorded as “failed to effectively ameliorate”. In addition, the IC50 in data set [1] is 45.4 µM.

Take `O=C1c2c(O)cc(O)cc2OC(c2ccc(O)c(O)c2)C1O` (stereo not shown) [taxifolin]: the “improvement” value in data set [2] is given as “effective improvement”. For the same compound, the IC50 in data set [1] (setting [5]) came out at 263 µM.

The record behind these values is PMC10811918, “Mechanisms of Bushen Tiaoxue Granules against controlled ovarian hyperstimulation-induced abnormal morphology of endometrium based on network pharmacology” (Journal of Ovarian Research, 2024).
